The results in this text go back to patent US20220081422A1 (Janssen Biotech, Inc., priority 2019, published 2022).

For orientation: IC50 means the concentration that gives 50% inhibition.

One assay has as its target T1, human DHODH (Homo sapiens, UniProt Q02127).
T1 construct: purchased Proteros PR-0044
Briefly: DHODH enzymatic assay (DCIP absorbance, end-point). In kind it is biochemical. The note with it: purified human DHODH, DCIP as final electron acceptor, end-point mode; read-out: hDHODH IC50. On the procedure:
In vitro Assay: DHODH enzymatic assay
To detect DHODH enzyme activities, dichloroindophenol (DCIP) is added as the final electron acceptor in the assay. DCIP can accept electrons from the reduced coenzyme Q generated in the assay, or from dihydroorotate (DHO) via FMN by binding presumably to the ubiquinone pocket. […] The assay buffer contained […], pH 7.5, 150 mM NaCl, 0.5 mM EDTA, and 0.1% Triton X-100 in MilliQ water. Substrate consisting of 20 mM DHO, 5 mM CoQ6, and 1 mM DCIP in assay buffer, initiates the reaction. […] Absorbance measurements were obtained using the BMG Phera Star plate-reading spectrophotometer. Purified human DHODH was purchased from Proteros (cat. No. PR-0044). Chemicals were purchased from Sigma-Aldrich, Teknova, and Avanti Polar Lipids. Liquid handling was performed using Labcyte Echo and Formulatrix Tempest.

In the next assay the test system is MOLM-13 cells. Briefly: MOLM-13 cellular assay (CellTiter-Glo cell viability). The note with it: 72 hours exposure, cell viability by CellTiter-Glo. In kind it is cell-based. As for the experimental part:
In Vitro Assay: MOLM-13 Cellular Assay
MOLM-13 cells were obtained from DSMZ and were maintained in RPMI 1640+Glutamax+25 mM HEPES (Invitrogen, catalog number 72400) supplemented with 10% heat inactivated fetal bovine serum (FBS; Invitrogen, catalog number 16140). The day prior to assay set-up, cells were pelleted, resuspended in fresh media, counted, and cells were plated at 0.4×10^6 cell/mL in a T150 flask. On the day of the assay, cells were pelleted, resuspend in fresh media, counted and seeded at 5,000 cells/well in white opaque 96-well tissue culture treated microplates (Perkin Elmer, catalog number 6005680). Cells were exposed to different concentrations of test compounds at 37° C., 5% CO2 for 72 hours immediately after seeding. Cell viability was acquired on a Perkin Elmer Envision 2104 multilabel reader using the CellTiter-Glo assay (Promega) according to the manufacturer's instructions.

Some results are limits rather than exact numbers.

T1 sequence (Q02127 whole entry): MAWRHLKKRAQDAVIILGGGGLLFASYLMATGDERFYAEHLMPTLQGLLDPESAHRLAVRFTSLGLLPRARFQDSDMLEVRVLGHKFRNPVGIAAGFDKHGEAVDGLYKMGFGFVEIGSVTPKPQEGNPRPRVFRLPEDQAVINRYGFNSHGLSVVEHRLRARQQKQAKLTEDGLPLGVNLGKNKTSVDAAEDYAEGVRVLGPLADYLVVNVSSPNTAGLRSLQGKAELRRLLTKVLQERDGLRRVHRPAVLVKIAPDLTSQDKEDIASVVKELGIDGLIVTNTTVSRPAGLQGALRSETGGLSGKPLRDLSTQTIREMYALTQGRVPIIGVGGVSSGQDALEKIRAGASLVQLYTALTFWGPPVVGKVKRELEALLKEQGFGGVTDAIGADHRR

With `C=C(C)[C@H]1CN(c2c(C)cnc(OC)c2C)C(=O)c2cc(F)c(-n3nc(CO)n(CC)c3=O)cc21` (single isomer, unassigned; atropisomer 2) [Example 57, Atropisomer 2, (R*)-6-(4-Ethyl-3-(hydroxymethyl)-5-oxo-4,5-dihydro-1H-1,2,4-triazol-1-yl)-7-fluoro-2-(2-methoxy-3,5-dimethylpyridin-4-yl)-4-(prop-1-en-2-yl)-3,4-dihydroisoquinolin-1(2H)-one], the half-maximal inhibitory concentration (IC50) at human DHODH was more than 100 nM; in the assay with MOLM-13 cells, 29.7 nM.
For the molecule `C=C(C)C1CN(c2c(Cl)ccnc2C)C(=O)c2cc(F)c(-n3nc(CO)n(CC)c3=O)cc21` (racemic) [Example 25, Racemic-2-(4-Chloro-2-methylpyridin-3-yl)-6-(4-ethyl-3-(hydroxymethyl)-5-oxo-4,5-dihydro-1H-1,2,4-triazol-1-yl)-7-fluoro-4-(prop-1-en-2-yl)-3,4-dihydroisoquinolin-1(2H)-one], the IC50 is more than 100 nM on human DHODH and 62.5 nM in the assay with MOLM-13 cells (Homo sapiens, MOLM-13, 72 h).
As for `CCn1c(CO)nn(-c2nc3c(cc2F)C(=O)N(c2c(F)cccc2Cl)CN3[C@@H](C)C2OCCCO2)c1=O` [Example 23, (S)-1-(1-(1,3-Dioxan-2-yl)ethyl)-3-(2-chloro-6-fluorophenyl)-7-(4-ethyl-3-(hydroxymethyl)-5-oxo-4,5-dihydro-1H-1,2,4-triazol-1-yl)-6-fluoro-2,3-dihydropyrido[2,3-d]pyrimidin-4(1H)-one], the IC50 amounted to 3 nM at human DHODH and 6.64 nM in the assay on MOLM-13 cells (Homo sapiens, MOLM-13, 72 h).
Consider `CCn1c(CO)nn(-c2nc3c(cc2F)C(=O)N(c2c(F)cccc2Cl)CN3C(C)C)c1=O` [Example 5, 3-(2-Chloro-6-fluorophenyl)-7-(4-ethyl-3-(hydroxymethyl)-5-oxo-4,5-dihydro-1H-1,2,4-triazol-1-yl)-6-fluoro-1-isopropyl-2,3-dihydropyrido[2,3-d]pyrimidin-4(1H)-one], for which the half-maximal inhibitory concentration (IC50) on human DHODH was determined as 1.4 nM; in the assay on MOLM-13 cells (Homo sapiens, MOLM-13, 72 h) it was 1.2 nM.
As to `C=C(C)C1CN(c2cc(C)ccc2F)C(=O)c2cc(F)c(-n3nc(CO)n(CC)c3=O)cc21` (single isomer, unassigned) [Example 39, (S *)-6-(4-Ethyl-3-(hydroxymethyl)-5-oxo-4,5-dihydro-1H-1,2,4-triazol-1-yl)-7-fluoro-2-(2-fluoro-5-methylphenyl)-4-(prop-1-en-2-yl)-3,4-dihydroisoquinolin-1(2H)-one], the IC50 on human DHODH was 20 nM; with MOLM-13 cells, 14.1 nM.
With `CCCN1CN(c2c(F)cccc2Cl)C(=O)c2cc(F)c(-n3nc(CO)n(CC)c3=O)cc21` [Example 22, 3-(2-Chloro-6-fluorophenyl)-7-(4-ethyl-3-(hydroxymethyl)-5-oxo-4,5-dihydro-1H-1,2,4-triazol-1-yl)-6-fluoro-1-propyl-2,3-dihydroquinazolin-4(1H)-one], the IC50 amounted to 4 nM on human DHODH and 5.49 nM in the assay with MOLM-13 cells (Homo sapiens, MOLM-13, 72 h).
For `CCn1c(CO)nn(-c2cc3c(cc2F)c(=O)n(-c2c(F)cccc2Cl)c(=O)n3C(C)C)c1=O` [Example 4, 3-(2-Chloro-6-fluorophenyl)-7-(4-ethyl-3-(hydroxymethyl)-5-oxo-4,5-dihydro-1H-1,2,4-triazol-1-yl)-6-fluoro-1-isopropylquinazoline-2,4(1H,3H)-dione], the IC50 at human DHODH was determined as 110 nM; in the assay on MOLM-13 cells (Homo sapiens, MOLM-13, 72 h) it was 4.4 nM.
Regarding `CCn1c(CO)nn(-c2nc3c(cc2F)C(=O)N(c2c(F)cccc2Cl)CN3C2CCC2)c1=O` [Example 7, 3-(2-chloro-6-fluorophenyl)-1-cyclobutyl-7-(4-ethyl-3-(hydroxymethyl)-5-oxo-4,5-dihydro-1H-1,2,4-triazol-1-yl)-6-fluoro-2,3-dihydropyrido[2,3-d]pyrimidin-4(1H)-one], the IC50 was found to be 2.6 nM at human DHODH and 1.7 nM in the assay with MOLM-13 cells (Homo sapiens, MOLM-13, 72 h).
For `C=C(C)[C@@H]1CN(c2ccccc2Cl)C(=O)c2cc(F)c(-n3nc(CO)n(CC)c3=O)cc21` (stereo in doubt) [Example 34], in that order: 0.9 nM and 1.06 nM.
Taken in the same sequence, the figures for `CCn1c(CO)nn(-c2cc3c(cc2F)C(=O)N(c2c(F)cncc2C#N)CN3C(C)C)c1=O` [Example 27, 4-(7-(4-Ethyl-3-(hydroxymethyl)-5-oxo-4,5-dihydro-1H-1,2,4-triazol-1-yl)-6-fluoro-1-isopropyl-4-oxo-1,4-dihydroquinazolin-3(2H)-yl)-5-fluoronicotinonitrile] were 30 nM and 48.1 nM.
For `C=C(C)C1CN(c2c(F)cccc2Cl)C(=O)c2ccc(-n3nc(CO)n(CC)c3=O)cc21` (racemic) [Example 11, Racemic-2-(2-Chloro-6-fluorophenyl)-6-(4-ethyl-3-(hydroxymethyl)-5-oxo-4,5-dihydro-1H-1,2,4-triazol-1-yl)-4-(prop-1-en-2-yl)-3,4-dihydroisoquinolin-1(2H)-one], in that order: 1.7 nM and 1 nM.
For the molecule `CCn1c(CO)nn(-c2ccc3c(c2)C(C(C)C)CN(c2c(F)cccc2Cl)C3=O)c1=O` (racemic) [Example 13, Racemic-2-(2-Chloro-6-fluorophenyl)-6-(4-ethyl-3-(hydroxymethyl)-5-oxo-4,5-dihydro-1H-1,2,4-triazol-1-yl)-4-isopropyl-3,4-dihydroisoquinolin-1(2H)-one], the IC50 was found to be 20 nM at human DHODH and 7.2 nM with MOLM-13 cells (Homo sapiens, MOLM-13, 72 h).
Consider `CCn1c(CO)nn(-c2ccc3c(c2)C(C(C)C)CN(c2ccccc2F)C3=O)c1=O` (racemic) [Example 12, Racemic-6-(4-Ethyl-3-(hydroxymethyl)-5-oxo-4,5-dihydro-1H-1,2,4-triazol-1-yl)-2-(2-fluorophenyl)-4-isopropyl-3,4-dihydroisoquinolin-1(2H)-one], for which the IC50 stood at 140 nM on human DHODH and 58 nM with MOLM-13 cells (Homo sapiens, MOLM-13, 72 h).
Taken in the same sequence, the figures for `CCn1c(CO)nn(-c2nc3c(cc2F)C(=O)N(c2c(F)cccc2Cl)CN3C2CCOCC2)c1=O` [Example 6, 3-(2-Chloro-6-fluorophenyl)-7-(4-ethyl-3-(hydroxymethyl)-5-oxo-4,5-dihydro-1H-1,2,4-triazol-1-yl)-6-fluoro-1-(tetrahydro-2H-pyran-4-yl)-2,3-dihydropyrido[2,3-d]pyrimidin-4(1H)-one] were 57 nM and 50 nM.
`CCn1c(CO)nn(-c2nc3c(cc2F)C(=O)N(c2c(F)cccc2Cl)CN3C2CC2)c1=O` [Example 9, 3-(2-Chloro-6-fluorophenyl)-1-cyclopropyl-7-(4-ethyl-3-(hydroxymethyl)-5-oxo-4,5-dihydro-1H-1,2,4-triazol-1-yl)-6-fluoro-2,3-dihydropyrido[2,3-d]pyrimidin-4(1H)-one]: the IC50 at human DHODH was 11 nM; with MOLM-13 cells (Homo sapiens, MOLM-13, 72 h) it was 1.7 nM.
For `C=C(C)C1CN(c2ccccc2C)C(=O)c2cc(F)c(-n3nc(CO)n(CC)c3=O)cc21` (single isomer, unassigned) [Example 41, (S*)-6-(4-Ethyl-3-(hydroxymethyl)-5-oxo-4,5-dihydro-1H-1,2,4-triazol-1-yl)-7-fluoro-4-(prop-1-en-2-yl)-2-(o-tolyl)-3,4-dihydroisoquinolin-1(2H)-one], the IC50 is 1 nM on human DHODH and 1.99 nM in the assay with MOLM-13 cells.
Turning to `C=C(C)C1CN(c2c(C)ccnc2Cl)C(=O)c2cc(F)c(-n3nc(CO)n(CC)c3=O)cc21` (racemic) [Example 45, Racemic-2-(2-chloro-4-methylpyridin-3-yl)-6-(4-ethyl-3-(hydroxymethyl)-5-oxo-4,5-dihydro-1H-1,2,4-triazol-1-yl)-7-fluoro-4-(prop-1-en-2-yl)-3,4-dihydroisoquinolin-1(2H)-one], the IC50 stood at 7 nM on human DHODH and 6.98 nM in the assay with MOLM-13 cells (Homo sapiens, MOLM-13, 72 h).
